According to ChEMBL document CHEMBL2150950, “Effect of 4-aryl-2-methyl-5-nitro-1,4-dihydropyridine-3-carboxylates on the guinea pig papillary muscle and isolated human vena saphena magna that is used for coronary artery bypass grafting” (2011):

Assays:
[1] = Ionotropic effect in guinea pig ventricle papillary muscles assessed as lengthening of 90% repolarized cardiac action potential duration time at 10^-4 M by microelectrode technique relative to untreated control (reference value: 132 to 176 APD50 ms); format: functional, Cavia porcellus, Papillary muscle
[2] = Ionotropic effect in guinea pig ventricle papillary muscles assessed as lengthening of 10% repolarized cardiac action potential duration time at 10^-4 M by microelectrode technique relative to untreated control (reference value: 37 to 47 APD10 ms); format: functional, Cavia porcellus, Papillary muscle
[3] = Ionotropic effect in guinea pig ventricle papillary muscles assessed as lengthening of 25% repolarized cardiac action potential duration time at 10^-5 M by microelectrode technique relative to untreated control (reference value: 120 to 131 APD25 ms) in presence of 2 x 10^-5 M KATP channel blocker glibenclamide; format: functional, Cavia porcellus
[4] = Ionotropic effect in guinea pig ventricle papillary muscles assessed as lengthening of 50% repolarized cardiac action potential duration time at 10^-4 M by microelectrode technique relative to untreated control (reference value: 180 to 192 APD50 ms) in presence of 2 x 10^-5 M KATP channel blocker glibenclamide; format: functional, Cavia porcellus
[5] = Ionotropic effect in guinea pig ventricle papillary muscles assessed as lengthening of 10% repolarized cardiac action potential duration time at 10^-5 M by microelectrode technique relative to untreated control (reference value: 52 to 54 APD10 ms) in presence of 1 x 10^-6 M IKr channel blocker Sotalol; format: functional, Cavia porcellus
[6] = Ionotropic effect in guinea pig ventricle papillary muscles assessed as lengthening of 10% repolarized cardiac action potential duration time at 10^-6 M by microelectrode technique relative to untreated control (reference value: 52 to 54 APD10 ms) in presence of 3.1 x 10^-6 M inward rectifier current blocker BaCl2; format: functional, Cavia porcellus
[7] = Ionotropic effect in guinea pig ventricle papillary muscles assessed as lengthening of 25% repolarized cardiac action potential duration time at 10^-6 M by microelectrode technique relative to untreated control (reference value: 120 to 131 APD25 ms) in presence of 3.1 x 10^-6 M inward rectifier current blocker BaCl2; format: functional, Cavia porcellus
[8] = Ionotropic effect in guinea pig right ventricle papillary muscles assessed as contraction force at 10^-6 M by force transduction assay relative to untreated control (reference value: 100%) in presence of 2 x 10^-5 M KATP channel blocker glibenclamide; format: functional, Cavia porcellus, Heart right ventricle
[9] = Ionotropic effect in guinea pig ventricle papillary muscles assessed as lengthening of 90% repolarized cardiac action potential duration time at 10^-5 M by microelectrode technique relative to untreated control (reference value: 132 to 176 APD50 ms); format: functional, Cavia porcellus, Papillary muscle
[10] = Ionotropic effect in guinea pig ventricle papillary muscles assessed as lengthening of 50% repolarized cardiac action potential duration time at 10^-7 M by microelectrode technique relative to untreated control (reference value: 180 to 192 APD50 ms) in presence of 2 x 10^-5 M KATP channel blocker glibenclamide; format: functional, Cavia porcellus
[11] = Ionotropic effect in guinea pig right ventricle papillary muscles assessed as contraction force at 10^-6 M by force transduction assay relative to untreated control (reference value: 100%); format: functional, Cavia porcellus, Papillary muscle
[12] = Ionotropic effect in guinea pig right ventricle papillary muscles assessed as contraction force at 10^-7 M by force transduction assay relative to untreated control (reference value: 100%) in presence of 3.1 x 10^-6 M inward rectifier current blocker BaCl2; format: functional, Cavia porcellus, Heart right ventricle
[13] = Ionotropic effect in guinea pig ventricle papillary muscles assessed as lengthening of 25% repolarized cardiac action potential duration time at 10^-4 M by microelectrode technique relative to untreated control (reference value: 84 to 104 APD25 ms); format: functional, Cavia porcellus, Papillary muscle
[14] = Ionotropic effect in guinea pig ventricle papillary muscles assessed as lengthening of 10% repolarized cardiac action potential duration time at 10^-4 M by microelectrode technique relative to untreated control (reference value: 52 to 54 APD10 ms) in presence of 2 x 10^-5 M KATP channel blocker glibenclamide; format: functional, Cavia porcellus
[15] = Ionotropic effect in guinea pig ventricle papillary muscles assessed as lengthening of 50% repolarized cardiac action potential duration time at 10^-7 M by microelectrode technique relative to untreated control (reference value: 180 to 192 APD50 ms) in presence of 3.1 x 10^-6 M inward rectifier current blocker BaCl2; format: functional, Cavia porcellus
[16] = Ionotropic effect in guinea pig right ventricle papillary muscles assessed as contraction force at 10^-4 M by force transduction assay relative to untreated control (reference value: 100%) in presence of 3.1 x 10^-6 M inward rectifier current blocker BaCl2; format: functional, Cavia porcellus, Heart right ventricle
[17] = Ionotropic effect in guinea pig right ventricle papillary muscles assessed as contraction force at 10^-6 M by force transduction assay relative to untreated control (reference value: 100%) in presence of 3.1 x 10^-6 M inward rectifier current blocker BaCl2; format: functional, Cavia porcellus, Heart right ventricle
[18] = Ionotropic effect in guinea pig ventricle papillary muscles assessed as lengthening of 25% repolarized cardiac action potential duration time at 10^-4 M by microelectrode technique relative to untreated control (reference value: 120 to 131 APD25 ms) in presence of 1 x 10^-6 M IKr channel blocker Sotalol; format: functional, Cavia porcellus
[19] = Ionotropic effect in guinea pig right ventricle papillary muscles assessed as contraction force at 10^-5 M by force transduction assay relative to untreated control (reference value: 100%) in presence of 3.1 x 10^-6 M inward rectifier current blocker BaCl2; format: functional, Cavia porcellus, Heart right ventricle
[20] = Ionotropic effect in guinea pig ventricle papillary muscles assessed as lengthening of 25% repolarized cardiac action potential duration time at 10^-5 M by microelectrode technique relative to untreated control (reference value: 84 to 104 APD25 ms); format: functional, Cavia porcellus, Papillary muscle
[21] = Ionotropic effect in guinea pig ventricle papillary muscles assessed as lengthening of 50% repolarized cardiac action potential duration time at 10^-4 M by microelectrode technique relative to untreated control (reference value: 180 to 192 APD50 ms) in presence of 3.1 x 10^-6 M inward rectifier current blocker BaCl2; format: functional, Cavia porcellus
[22] = Ionotropic effect in guinea pig ventricle papillary muscles assessed as lengthening of 50% repolarized cardiac action potential duration time at 10^-7 M by microelectrode technique relative to untreated control (reference value: 180 to 192 APD50 ms) in presence of 1 x 10^-6 M IKr channel blocker Sotalol; format: functional, Cavia porcellus
[23] = Ionotropic effect in guinea pig ventricle papillary muscles assessed as lengthening of 90% repolarized cardiac action potential duration time at 10^-5 M by microelectrode technique relative to untreated control (reference value: 209 to 222 APD50 ms) in presence of 2 x 10^-5 M KATP channel blocker glibenclamide; format: functional, Cavia porcellus
[24] = Ionotropic effect in guinea pig ventricle papillary muscles assessed as lengthening of 50% repolarized cardiac action potential duration time at 10^-7 M by microelectrode technique relative to untreated control (reference value: 132 to 176 APD50 ms); format: functional, Cavia porcellus, Papillary muscle
[25] = Ionotropic effect in guinea pig ventricle papillary muscles assessed as lengthening of 10% repolarized cardiac action potential duration time at 10^-6 M by microelectrode technique relative to untreated control (reference value: 37 to 47 APD10 ms); format: functional, Cavia porcellus, Papillary muscle

Question: Which results are given for `CCCOCCOC(=O)C1=C(C)NC=C([N+](=O)[O-])C1c1ccccc1OC(F)F` (stereo not given)?
Answer: Time [1]: 256 ms; Time [2]: 55.5 ms; Time [3]: 155 ms; Time [4]: 247 ms; Time [5]: 54.6 ms; Time [6]: 60.9 ms; Time [7]: 149.7 ms; Activity [8]: 120%; Time [9]: 238.5 ms; Time [10]: 209 ms; Activity [11]: 120%; Activity [12]: 111.4%; Time [13]: 146.9 ms; Time [14]: 65 ms; Time [15]: 210 ms; Activity [16]: 204.5%; Activity [17]: 118%; Time [18]: 142 ms; Activity [19]: 193%; Time [20]: 133 ms; Time [21]: 238 ms; Time [22]: 195 ms; Time [23]: 265 ms; Time [24]: 188.5 ms; Time [25]: 41.4 ms
